Consider 12 compounds from ChEMBL document CHEMBL4257539, “Identification of potent catalytic inhibitors of human DNA topoisomerase II by structure-based virtual screening” (Medchemcomm, 2018).

Molecules are shown by their SMILES. Activity calls are given as the source filed them. The rule behind the calls is not given here.

The test system of assay [1] is HCT-116. As to the kind of experiment: cells. The following applies: Homo sapiens, HCT-116, 72 h.
Description: (§1) Antiproliferative activity against human HCT116 cells after 72 hrs by MTT assay
The test system of the next assay is ZR-75-30. The assay can be described thus: Antiproliferative activity against human ZR-7530 cells after 72 hrs by MTT assay. It is filed as functional, cell-based. On the technique in general: Tetrazolium dyes change colour on reduction, which living cells bring about.
The test system of assay [2] is A549. The assay can be described thus: cells. The following applies: Homo sapiens, A549, 72 h.
Description: (§2) Antiproliferative activity against human A549 cells after 72 hrs by MTT assay
Assay [3] is filed under the species Homo sapiens. The assay can be described thus: Inhibition of human topoisomerase-2 assessed as reduction in relaxation of supercoiled pBR322 DNA at 100 uM after 30 mins by ethidium bromide staining based agarose gel electrophoresis method.
Assay [4] is described as follows: Inhibition of human topoisomerase-2 assessed as reduction in relaxation of supercoiled pBR322 DNA after 30 mins by ethidium bromide staining based agarose gel electrophoresis method.
In assay [5] the test system is A549.
Description: as §2
In assay [6] the test system is HCT-116.
Description: as §1
The species entered for assay [7] is Homo sapiens. The assay can be described thus: Inhibition of human topoisomerase-2 assessed as reduction in relaxation of supercoiled pBR322 DNA at 50 uM after 30 mins by ethidium bromide staining based agarose gel electrophoresis method.
The mark [8] stands for this setting: Homo sapiens, ZR-75-30, 72 h, read-out: IC50.

With `COc1ccc(-c2cc(-c3ccccc3)c(C#N)c(SCC(=O)O)n2)cc1`, the IC50 – broadly, the point on the concentration scale where inhibition reaches its midpoint – in the assay with HCT-116 [1] is 10 µM; in the assay on ZR-75-30 (setting [8]) it was 14 µM; in the assay with A549 [2] it was 37 µM. In addition, the inhibition entry in the assay filed under Homo sapiens [3] is “Active”.
As for `CC(C)(O)C#Cc1cc(C(=O)NCCc2ccc(S(N)(=O)=O)cc2)c2oc(C(C)(C)O)cc2c1`, the IC50 was 349 µM in assay [4], 62 µM in the assay on ZR-75-30 (setting [8]), “Not Active” with A549 [5] and “Not Active” in the assay on HCT-116 [6]. Further, the inhibition result in the assay filed under Homo sapiens [3] is “Active”.
On to `O=C(O)c1ccc2c(c1)C(=O)N(c1ccc(C(=O)OCC(=O)c3ccccc3)cc1)C2=O`, for which the IC50 result in the assay on ZR-75-30 (zr-75-30), in the assay with A549 [5] and with HCT-116 [6] was “Not Active” throughout. Further, the inhibition entry in the assay filed under Homo sapiens [3] is “Active”.
In the case of `COc1ccc(C(=O)Cn2c(=N)n(Cc3ccc(C)cc3)c3ccccc32)cc1`, the figures for the IC50 in the assay on HCT-116 [1], in the assay with ZR-75-30 (setting [8]) and with A549 [2] were 1 µM, 1.2 µM and 1.2 µM, respectively. Also, in the assay listed under Homo sapiens [3], the inhibition entry was “Active”.
As to `COc1cc([C@@H]2c3cc4c(cc3[C@@H](O[C@@H]3O[C@@H]5CO[C@@H](C)O[C@H]5[C@H](O)[C@H]3O)[C@H]3COC(=O)[C@H]23)OCO4)cc(OC)c1O` [ETOPOSIDE], the IC50 in assay [4] is 184 µM; in the assay on HCT-116 [1], 1.1 µM; in the assay on ZR-75-30 (setting [8]) it was 1.5 µM; in the assay on A549 [2] it was 68 µM. In addition, the inhibition entry in the assay filed under Homo sapiens [7] is “inactive”. The inhibition result in the assay listed under Homo sapiens [3] is “Active”.
Regarding `O=C(O)CCc1nn2c3ccccc3n(Cc3ccccc3)c2nc1=O`, the IC50 result in the assay on ZR-75-30 (zr-75-30), with A549 [5] and with HCT-116 [6] was “Not Active” throughout. The inhibition result in the assay listed under Homo sapiens [3] is “Active”.
For the compound `NS(=O)(=O)c1ccc(NC(=O)CSc2nnc3ccc4ccccc4n23)cc1`, the IC50 entry in the assay on ZR-75-30 (zr-75-30), with A549 [5] and with HCT-116 [6] was “Not Active” each time.
As for `O=C(O)CCSc1nnc(-c2cccnc2)n1CCc1ccccc1`, the IC50 result with ZR-75-30 (zr-75-30), in the assay with A549 [5] and in the assay on HCT-116 [6] was “Not Active” throughout.
For the compound `N#Cc1c(-c2ccc(F)cc2)cc(-c2ccccc2)nc1SCC(=O)NCC(=O)O`, the IC50 result in the assay with ZR-75-30 (zr-75-30), with A549 [5] and in the assay with HCT-116 [6] was “Not Active” in each case. The inhibition entry in the assay filed under Homo sapiens [3] was “Active”.
For `O=C(O)COc1ccc(/C=N/n2c(COc3ccccc3)nc3ccccc3c2=O)cc1`, the figures for the IC50 in the assay with HCT-116 [1], in the assay with ZR-75-30 (setting [8]) and with A549 [5] were 54 µM, 58 µM and “Not Active”, respectively. The inhibition result in the assay filed under Homo sapiens [3] is “Active”.
As to `C=CCn1c(CN2c3ccccc3Sc3ccccc32)nnc1SCC(=O)O`, the values for the IC50 with HCT-116 [1], in the assay with ZR-75-30 (setting [8]) and in the assay with A549 [5] were 32 µM, 15 µM and “Not Active”, respectively.
For `Cc1cc(C(=O)O)ccc1-c1ccc(/C=c2/sc3nc4ccccc4n3c2=O)o1`, the IC50 in assay [4] was 41 µM; with ZR-75-30 (zr-75-30) it was “Not Active”; in the assay on A549 [5] it was “Not Active”; in the assay on HCT-116 [6], “Not Active”. For the same compound, the inhibition entry in the assay filed under Homo sapiens [3] is “Active”.
